From ChEMBL document CHEMBL3045122, “Synthesis, in vitro antimicrobial, antiproliferative, and QSAR studies of N-(substituted phenyl)-2/4-(1H-indol-3-ylazo)-benzamides” (Med Chem Res, 2013)

What was measured:
Escherichia coli [1] = test: Antibacterial activity against Escherichia coli assessed as growth inhibition after 24 hr by tube dilution method; assay type: functional
Candida albicans [2] = test: Fungicidal activity against Candida albicans; assay type: functional
Bacillus subtilis [3] = test: Antibacterial activity against Bacillus subtilis assessed as growth inhibition after 24 hr by tube dilution method; assay type: functional
Escherichia coli [4] = test: Bactericidal activity against Escherichia coli; assay type: functional
Candida albicans [5] = test: Ratio of MFC to MIC for Candida albicans; assay type: functional
MCF7 = test: Cytotoxicity against Homo sapiens (human) MCF7 cells assessed as growth inhibition after 72 hr by MTT assay; assay type: functional, cell-based
Staphylococcus aureus [6] = test: Ratio of MBC to MIC for Staphylococcus aureus; assay type: functional
Aspergillus niger [7] = test: Antifungal activity against Aspergillus niger assessed as growth inhibition after 7 days by tube dilution method; assay type: functional
Aspergillus niger [8] = test: Fungicidal activity against Aspergillus niger; assay type: functional
Bacillus subtilis [9] = test: Bactericidal activity against Bacillus subtilis; assay type: functional
Bacillus subtilis [10] = test: Ratio of MBC to MIC for Bacillus subtilis; assay type: functional
Staphylococcus aureus [11] = test: Bactericidal activity against Staphylococcus aureus; assay type: functional
Candida albicans [12] = test: Antifungal activity against Candida albicans assessed as growth inhibition after 48 hr by tube dilution method; assay type: functional
Staphylococcus aureus [13] = test: Antibacterial activity against Staphylococcus aureus assessed as growth inhibition after 24 hr by tube dilution method; assay type: functional
Aspergillus niger [14] = test: Ratio of MFC to MIC for Aspergillus niger; assay type: functional
Escherichia coli [15] = test: Ratio of MBC to MIC for Escherichia coli; assay type: functional
HCT-116 = test: Cytotoxicity against Homo sapiens (human) HCT116 cells assessed as growth inhibition after 72 hr by MTT assay; assay type: functional, cell-based

In the case of `O=C(Nc1ccccc1Cl)c1ccccc1/N=N\c1c[nH]c2ccccc12`, the “-logMIC” value (Escherichia coli [1]) is reported as 1.48, the MFC (Candida albicans [2]) is reported as greater than 0.13 uM/ml and the “-logMIC” value (Bacillus subtilis [3]) is reported as 1.48. For the same molecule, the MBC (Escherichia coli [4]) was greater than 0.13 uM/ml, the Ratio (Candida albicans [5]) was 3 and the IC50 (MCF7) was 0.1067 uM/ml. For the same molecule, the Ratio (Staphylococcus aureus [6]) was 3, the “-logMIC” value (Aspergillus niger [7]) was 1.48 and the MFC (Aspergillus niger [8]) was 0.03 uM/ml. The MBC (Bacillus subtilis [9]) was greater than 0.13 uM/ml, the Ratio (Bacillus subtilis [10]) was 3 and the MBC (Staphylococcus aureus [11]) was greater than 0.13 uM/ml. For the same molecule, the “-logMIC” value (Candida albicans [12]) was 1.48, the “-logMIC” value (Staphylococcus aureus [13]) was 1.18 and the Ratio (Aspergillus niger [14]) was 3. The Ratio (Escherichia coli [15]) was 3 and the IC50 (HCT-116) was 0.24 uM/ml.
`O=C(Nc1cccc(Cl)c1)c1ccccc1/N=N\c1c[nH]c2ccccc12` was tested, and the “-logMIC” value (Escherichia coli [1]) was 1.78, the MFC (Candida albicans [2]) was greater than 0.13 uM/ml and the “-logMIC” value (Bacillus subtilis [3]) was 1.48. For the same molecule, the MBC (Escherichia coli [4]) was greater than 0.13 uM/ml, the Ratio (Candida albicans [5]) was 3 and the IC50 (MCF7) was 0.1067 uM/ml. The Ratio (Staphylococcus aureus [6]) was 3, the “-logMIC” value (Aspergillus niger [7]) was 1.48 and the MFC (Aspergillus niger [8]) was 0.03 uM/ml. The MBC (Bacillus subtilis [9]) was greater than 0.13 uM/ml, the Ratio (Bacillus subtilis [10]) was 3 and the MBC (Staphylococcus aureus [11]) was greater than 0.13 uM/ml. For the same molecule, the “-logMIC” value (Candida albicans [12]) was 1.48, the “-logMIC” value (Staphylococcus aureus [13]) was 1.18 and the Ratio (Aspergillus niger [14]) was 3. The Ratio (Escherichia coli [15]) was 3 and the IC50 (HCT-116) was 0.2933 uM/ml.
For `O=C(Nc1ccc(Cl)cc1)c1ccccc1/N=N\c1c[nH]c2ccccc12`, the “-logMIC” value (Escherichia coli [1]) was 1.48, the MFC (Candida albicans [2]) was greater than 0.13 uM/ml and the “-logMIC” value (Bacillus subtilis [3]) was 1.48. It also gave an MBC (Escherichia coli [4]) greater than 0.13 uM/ml, a Ratio (Candida albicans [5]) of 3 and an IC50 (MCF7) of 0.1067 uM/ml. The Ratio (Staphylococcus aureus [6]) was 3, the “-logMIC” value (Aspergillus niger [7]) was 1.48 and the MFC (Aspergillus niger [8]) was 0.03 uM/ml. It also gave an MBC (Bacillus subtilis [9]) greater than 0.13 uM/ml, a Ratio (Bacillus subtilis [10]) of 3 and an MBC (Staphylococcus aureus [11]) greater than 0.13 uM/ml. The “-logMIC” value (Candida albicans [12]) was 1.48, the “-logMIC” value (Staphylococcus aureus [13]) was 1.18 and the Ratio (Aspergillus niger [14]) was 3. The Ratio (Escherichia coli [15]) was 3 and the IC50 (HCT-116) was 0.3467 uM/ml.
With `Cc1ccccc1NC(=O)c1ccccc1/N=N\c1c[nH]c2ccccc12` the “-logMIC” value (Escherichia coli [1]) was 1.45, the MFC (Candida albicans [2]) was greater than 0.14 uM/ml and the “-logMIC” value (Bacillus subtilis [3]) was 1.45. It also gave an MBC (Escherichia coli [4]) greater than 0.14 uM/ml, a Ratio (Candida albicans [5]) of 3 and an IC50 (MCF7) of 0.1412 uM/ml. The Ratio (Staphylococcus aureus [6]) was 3, the “-logMIC” value (Aspergillus niger [7]) was 1.45 and the MFC (Aspergillus niger [8]) was 0.04 uM/ml. It also gave an MBC (Bacillus subtilis [9]) greater than 0.14 uM/ml, a Ratio (Bacillus subtilis [10]) of 3 and an MBC (Staphylococcus aureus [11]) greater than 0.14 uM/ml. For the same molecule, the “-logMIC” value (Candida albicans [12]) was 1.45, the “-logMIC” value (Staphylococcus aureus [13]) was 1.15 and the Ratio (Aspergillus niger [14]) was 3. For the same molecule, the Ratio (Escherichia coli [15]) was 3 and the IC50 (HCT-116) was 1.1299 uM/ml.
For `O=C(Nc1ccccc1)c1ccccc1/N=N\c1c[nH]c2ccccc12`, the “-logMIC” value (Escherichia coli [1]) was 1.74, the MFC (Candida albicans [2]) was greater than 0.15 uM/ml and the “-logMIC” value (Bacillus subtilis [3]) was 1.74. For the same molecule, the MBC (Escherichia coli [4]) was greater than 0.15 uM/ml, the Ratio (Candida albicans [5]) was 3 and the IC50 (MCF7) was 0.0882 uM/ml. The Ratio (Staphylococcus aureus [6]) was 3, the “-logMIC” value (Aspergillus niger [7]) was 1.44 and the MFC (Aspergillus niger [8]) was 0.04 uM/ml. The MBC (Bacillus subtilis [9]) was greater than 0.15 uM/ml, the Ratio (Bacillus subtilis [10]) was 3 and the MBC (Staphylococcus aureus [11]) was greater than 0.15 uM/ml. For the same molecule, the “-logMIC” value (Candida albicans [12]) was 1.44, the “-logMIC” value (Staphylococcus aureus [13]) was 1.13 and the Ratio (Aspergillus niger [14]) was 3. The Ratio (Escherichia coli [15]) was 3 and the IC50 (HCT-116) was 0.2353 uM/ml.
`Cc1ccc(NC(=O)c2ccccc2/N=N\c2c[nH]c3ccccc23)c(C)c1` was tested, and the “-logMIC” value (Escherichia coli [1]) was 1.47, the MFC (Candida albicans [2]) was greater than 0.14 uM/ml and the “-logMIC” value (Bacillus subtilis [3]) was 1.47. It also gave an MBC (Escherichia coli [4]) greater than 0.14 uM/ml, a Ratio (Candida albicans [5]) of 3 and an IC50 (MCF7) of 0.1087 uM/ml. For the same molecule, the Ratio (Staphylococcus aureus [6]) was 3, the “-logMIC” value (Aspergillus niger [7]) was 1.47 and the MFC (Aspergillus niger [8]) was 0.03 uM/ml. It also gave an MBC (Bacillus subtilis [9]) greater than 0.14 uM/ml, a Ratio (Bacillus subtilis [10]) of 3 and an MBC (Staphylococcus aureus [11]) greater than 0.14 uM/ml. For the same molecule, the “-logMIC” value (Candida albicans [12]) was 1.47, the “-logMIC” value (Staphylococcus aureus [13]) was 1.17 and the Ratio (Aspergillus niger [14]) was 3. It also gave a Ratio (Escherichia coli [15]) of 3 and an IC50 (HCT-116) of 0.0815 uM/ml.
In the case of `Cc1cccc(NC(=O)c2ccccc2/N=N\c2c[nH]c3ccccc23)c1`, the “-logMIC” value (Escherichia coli [1]) is reported as 1.75, the MFC (Candida albicans [2]) is reported as greater than 0.14 uM/ml and the “-logMIC” value (Bacillus subtilis [3]) is reported as 1.75. It also gave an MBC (Escherichia coli [4]) greater than 0.14 uM/ml, a Ratio (Candida albicans [5]) of 3 and an IC50 (MCF7) of 0.1271 uM/ml. For the same molecule, the Ratio (Staphylococcus aureus [6]) was 3, the “-logMIC” value (Aspergillus niger [7]) was 1.45 and the MFC (Aspergillus niger [8]) was 0.04 uM/ml. It also gave an MBC (Bacillus subtilis [9]) greater than 0.14 uM/ml, a Ratio (Bacillus subtilis [10]) of 3 and an MBC (Staphylococcus aureus [11]) greater than 0.14 uM/ml. For the same molecule, the “-logMIC” value (Candida albicans [12]) was 1.45, the “-logMIC” value (Staphylococcus aureus [13]) was 1.45 and the Ratio (Aspergillus niger [14]) was 3. It also gave a Ratio (Escherichia coli [15]) of 3 and an IC50 (HCT-116) of 0.1695 uM/ml.
With `Cc1ccc(NC(=O)c2ccccc2/N=N\c2c[nH]c3ccccc23)cc1` the “-logMIC” value (Escherichia coli [1]) was 1.45, the MFC (Candida albicans [2]) was greater than 0.14 uM/ml and the “-logMIC” value (Bacillus subtilis [3]) was 1.45. The MBC (Escherichia coli [4]) was greater than 0.14 uM/ml, the Ratio (Candida albicans [5]) was 3 and the IC50 (MCF7) was 0.0791 uM/ml. The Ratio (Staphylococcus aureus [6]) was 3, the “-logMIC” value (Aspergillus niger [7]) was 1.45 and the MFC (Aspergillus niger [8]) was 0.04 uM/ml. The MBC (Bacillus subtilis [9]) was greater than 0.14 uM/ml, the Ratio (Bacillus subtilis [10]) was 3 and the MBC (Staphylococcus aureus [11]) was greater than 0.14 uM/ml. The “-logMIC” value (Candida albicans [12]) was 1.45, the “-logMIC” value (Staphylococcus aureus [13]) was 1.15 and the Ratio (Aspergillus niger [14]) was 3. The Ratio (Escherichia coli [15]) was 3 and the IC50 (HCT-116) was 0.452 uM/ml.
